The values below come from paper PMC12689286, “Enhanced therapeutics of cabazitaxel via polycarboxylate conjugation: improved solubility, safety, and antitumor efficacy” (Frontiers in Immunology, 2025).

Data set [1] is described as follows: Lipid-aqueous (octanol/water) partition coefficient. Conditions: room temperature. The format is physicochemical. The method, then: CTXs were dissolved in octanol, and an equal volume of water was added, followed by shaken at 100 rpm for 24 h at room temperature. The upper octanol phase and lower water phase were separated by centrifugation. The supernatant was analyzed by HPLC (Bruker SolanX 70 FT-MS; Agilent 6540TOF) ([21]).

Data set [2] has as its system DU145 prostate cancer model. Description: DU145 prostate cancer xenograft, tumor volume. Format: in vivo, BALB/c nude mice. Conditions: 3 μmol/kg tail vein, three times at 3-day intervals, control 500 ± 45 mm³. As to the method: (§1) All animal experiments were conducted in accordance with protocols approved by the Institutional Animal Care and Use Committee of Peking Union Medical College. Male BALB/c nude mice (6–8 weeks old) and female KM mice (6–8 weeks old) were purchased from Charles River Laboratories (Beijing, China) and maintained under specific pathogen-free conditions.
(§2) DU145 Prostate cancer model: DU145 cells (3×10^6 cells/mouse) were subcutaneously inoculated into the right flank of BALB/c nude mic. When tumors reached approximately 100 mm³, mice were randomly divided into four treatment groups (n=6/group): (a) Vehicle control; (b) CTX (3 μmol/kg); (c) CTX-TTHA (3 μmol/kg); (d) CTX-DTPA (3 μmol/kg). Treatments were administered via tail vein injection three times at 3-day intervals. Major organs were collected for histopathological examination after the final administration.

For data set [3], the system named is rat red blood cells (RBCs). Nature of the data set: Hemolysis test. The format is cell-based, SD rats. Conditions: vs unmodified CTX.
The test system of another data set is A549. Description: MTS cytotoxicity, A549. Conditions: Homo sapiens. Format: cell-based. The method, then:
(§3) Human cancer cell lines were cultured in basic medium (10% fetal bovine serum (FBS)+1% double antibody solution) (Biological Industries) at 37°C in a 5% CO2 incubator. Effects of CTXs on cell proliferation and viability were measured by an MTS (Promega Corporation) assay. Absorbance values at 490 nm were measured using a microplate reader (Thermo Scientific, Varioskan Flash) ([22]).

For data set [4], the system named is H22 hepatocellular carcinoma tumors. Nature of the data set: H22 hepatoma model, tumor growth inhibition. Format: in vivo, KM mice. Particulars: every other day. The method, then: (§4) H22 hepatoma model: Female KM mice were subcutaneously implanted with H22 cells (2×10^6 cells/mouse) and assigned to six groups: (a) Vehicle control; (b) CTX (9.6 μmol/kg in 5% glucose with 2.5% ethanol/2.5% Tween 80); (c) CTX-TTHA (9.6 μmol/kg in saline); (d) CTX-DTPA (9.6 μmol/kg in saline); (e) CTX-TTHA (19.1 μmol/kg in saline); (f) CTX-DTPA (19.1 μmol/kg in saline).
(§5) Treatments were administered every other day for four doses (three doses for CTX group due to weight loss >15%). Peripheral blood samples were collected for complete blood count analysis using an automated hematology analyzer.

For the next data set, the target named is T1, tubulin (Sus scrofa, UniProt P02554).
T1 construct: purchased Cytoskeleton BK006P
T1 sequence (P02554 whole entry): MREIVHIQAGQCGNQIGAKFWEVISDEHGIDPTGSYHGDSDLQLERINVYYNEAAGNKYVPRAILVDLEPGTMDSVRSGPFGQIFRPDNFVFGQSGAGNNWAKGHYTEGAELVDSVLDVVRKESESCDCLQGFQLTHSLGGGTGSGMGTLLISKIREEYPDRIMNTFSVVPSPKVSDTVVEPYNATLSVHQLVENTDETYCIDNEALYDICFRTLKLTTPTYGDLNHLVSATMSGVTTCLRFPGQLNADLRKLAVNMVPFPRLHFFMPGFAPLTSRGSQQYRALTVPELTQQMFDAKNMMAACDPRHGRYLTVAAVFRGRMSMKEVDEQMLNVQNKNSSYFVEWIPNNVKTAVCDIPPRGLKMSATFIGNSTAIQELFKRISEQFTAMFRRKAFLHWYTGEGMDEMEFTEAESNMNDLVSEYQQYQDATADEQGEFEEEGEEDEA
T1 sequence (P02550 whole entry partner): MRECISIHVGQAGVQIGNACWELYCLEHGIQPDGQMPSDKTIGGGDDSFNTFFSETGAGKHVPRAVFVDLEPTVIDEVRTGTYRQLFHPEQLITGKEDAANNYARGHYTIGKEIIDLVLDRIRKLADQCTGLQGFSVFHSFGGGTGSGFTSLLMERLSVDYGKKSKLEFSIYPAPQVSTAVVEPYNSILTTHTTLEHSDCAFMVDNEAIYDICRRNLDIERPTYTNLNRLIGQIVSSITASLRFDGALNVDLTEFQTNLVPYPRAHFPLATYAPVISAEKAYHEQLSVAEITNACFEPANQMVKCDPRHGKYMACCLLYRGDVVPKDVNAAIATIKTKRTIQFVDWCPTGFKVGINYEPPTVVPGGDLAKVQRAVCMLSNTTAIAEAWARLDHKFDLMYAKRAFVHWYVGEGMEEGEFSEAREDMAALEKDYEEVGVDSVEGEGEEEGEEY
Description: Purified tubulin polymerization. Particulars: purified tubulin 3 mg/ml, 37°C. The format is biochemical. The method, then: A tubulin polymerization assay kit (Cytoskeleton, BK006P) was used. Briefly, 10 μl of CTXs with a concentration of 100 μM in the general tubulin buffer and 100 μl of tubulin (3 mg/ml) in TP buffer were added on ice. The 96-well plate was immediately placed in a microplate reader at 37°C.

In a further data set the test system is HT-29. Nature of the data set: MTS cytotoxicity, HT-29. Format: cell-based. Particulars: Homo sapiens; HT-29, MTS. The method, then: as §3
The nature of data set [5]: Systemic toxicity in H22 tumor-bearing mice (body weight, blood count). The format is in vivo, KM mice. As to the method: as §4, §5
Data set [6] can be described thus: DU145 xenograft model, body weight. Conditions: 3 μmol/kg, by day 7. Format: in vivo, BALB/c nude mice. As to the method:
as §1, §2

For the next data set, the system named is thymus. Nature of the data set: Thymic toxicity in H22 tumor-bearing mice (thymus weight, thymocyte apoptosis). Format: in vivo, KM mice. The method, then:
as §4
Gently mix 1×10^6 thymocytes with FITC Anexin V (5 μl) and PI (10 μl), and incubate in the dark for 15 minutes, RT. Analyze by flow cytometry. Thymocytes were stained with anti-mouse CD3e cyanine 5.5 (eBioscience, 85-45-0031-82), anti-CD4 PE (eBioscience, 85-12-0042-82), anti-CD8a FITC (4°C 30 min) and detected by flow cytometry.

The nature of data set [7]: MCF-7 xenograft model, survival. Format: in vivo, BALB/c nude mice. Particulars: MCF-7 model, 9.6 μmol/kg, n=6. As to the method: as §1
MCF-7 Breast Cancer Model: Female BALB/c nude mice bearing MCF-7 xenografts (2×10^6 cells/mouse) were randomized into treatment groups as described above, with an adjusted dose of 9.6 μmol/kg for all CTX formulations.

Molecules are shown by their SMILES.

As usually defined, the logP is a log measure of how a compound divides between an organic and an aqueous phase. The low end stands for a more hydrophilic compound, the high end for a more lipophilic compound. A word on the IC50: it is the point on the concentration scale where inhibition reaches its midpoint. Lower therefore signals higher potency. As for `COC1C(=O)C2(C)C(OC)CC3OCC3(OC(C)=O)C2C(OC(=O)c2ccccc2)C2(O)CC(OC(=O)C(OC(=O)CN(CCN(CCN(CC(=O)O)CC(=O)O)CC(=O)O)CC(=O)O)C(NC(=O)OC(C)(C)C)c3ccccc3)C(C)=C1C2(C)C` (stereo not shown) [CTX-DTPA], the log partition coefficient (logP) at 24 h in data set [1] was 0.49 ± 0.12. The final tumor volume in data set [2] was determined as 244 ± 32 mm³. Besides, the “improvement in hemocompatibility over unmodified CTX” value in [3] was 64 fold. Besides, the IC50 came out at 3 ± 1.1 nM in the data set with A549 and 6.7 ± 2.9 nM in the data set on HT-29. The tumor growth inhibition in [4] (H22, high dose 19.1 μmol/kg in saline, four doses) came to 80.5%. The polymerization kinetics at tubulin came to 43.7 ± 8.0 mOD/min. In addition, the WBC counts in data set [5] (H22 mice, throughout treatment, across all dose groups (9.6 and 19.1 μmol/kg)) was 3.50-5.60 ×10^9/L.
In the case of `CO[C@H]1C(=O)[C@]2(C)[C@@H](OC)C[C@H]3OC[C@@]3(OC(C)=O)[C@H]2[C@H](OC(=O)c2ccccc2)[C@]2(O)C[C@H](OC(=O)[C@H](O)[C@@H](NC(=O)OC(C)(C)C)c3ccccc3)C(C)=C1C2(C)C` [CTX, Cabazitaxel], the body weight loss in data set [6] was more than 15%; in data set [5] (H22 tumor-bearing mice, 9.6 μmol/kg) it was 11-16%. Moreover, the logP at 24 h in [1] was found to be 4.55 ± 0.1. In data set [2], this molecule yielded a final tumor volume of 254 ± 35 mm³. In the data set on thymus, the “thymic weight relative to normal (thymic atrophy)” value is 31 % of normal weight. The molecule also returned a thymocyte apoptosis rate in the data set with thymus (Annexin V/PI flow cytometry) of 66.8%. The molecule further displayed a survival in data set [7] of 83.3%. Further, the values for the IC50 in the data set on A549 and in the data set with HT-29 were 2.5 ± 1.2 nM and 7.4 ± 3.4 nM, respectively. The tumor growth inhibition in data set [4] (H22, 9.6 μmol/kg, three doses) came out at 30.8%. Also, the “white blood cell count” value in data set [5] (H22 mice, day 7 post-treatment, controls 4.46 ± 1.19) is on record as 1.55 ± 0.17 ×10^9/L.
